As usually defined, the IC50 is the concentration that gives 50% inhibition. Lower therefore signals greater potency in that assay. In general, inhibition refers to how much of the control response was suppressed.

Data on 5 molecules can be found in publication PMC3542985 (The Journal of neuroscience : the official journal of the …, 2013).

For assay [1], the target named is T1, Torpedo nAChR (Tetronarce californica, UniProt P02710+P02712+P02714+P02718). As to the kind of experiment: biochemical. In kind it is binding.
Assay [2] addresses T1, Torpedo nAChR. As to the kind of experiment: equilibrium binding of the ion channel blocker [^3H]PCP.
In assay [3] the target is T2, Na^+/K^+-ATPase α subunit (Tetronarce californica, UniProt P05025). The assay is classed as binding, Torpedo californica.
Assay [4] has as its target T1, Torpedo nAChR. As to the kind of experiment: equilibrium binding of [^3H]ACh. The following applies: IC50, inhibition of [^3H]ACh binding.
Assay [5] concerns the target T1, Torpedo nAChR. As to the kind of experiment: equilibrium binding of the ion channel blocker [^3H]tetracaine.
Assay [6] concerns the target T2, Na^+/K^+-ATPase α subunit. In kind it is binding, Torpedo californica. This is another data set of the same source.
Assay [7] deals with T1, Torpedo nAChR. In kind it is binding.
Where [8] appears, read: Resting vs. Desensitized, −Carb (no other drugs).

“And” between values parts separate entries of the source, which are not always exact repeats. Equal entries are not always repeated. Where two headings read alike, the source gives them in different places.

T2 sequence (P05029 whole entry, other chains not shown): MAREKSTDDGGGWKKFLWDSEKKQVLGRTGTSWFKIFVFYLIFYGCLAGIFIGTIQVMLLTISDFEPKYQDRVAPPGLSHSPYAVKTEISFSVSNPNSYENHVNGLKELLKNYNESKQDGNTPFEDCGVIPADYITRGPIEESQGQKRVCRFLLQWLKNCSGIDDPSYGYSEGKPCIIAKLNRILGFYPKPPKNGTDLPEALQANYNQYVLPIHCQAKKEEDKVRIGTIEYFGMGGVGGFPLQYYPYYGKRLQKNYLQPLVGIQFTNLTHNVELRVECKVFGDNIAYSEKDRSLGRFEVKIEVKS
T1 sequence (P02718 22-522): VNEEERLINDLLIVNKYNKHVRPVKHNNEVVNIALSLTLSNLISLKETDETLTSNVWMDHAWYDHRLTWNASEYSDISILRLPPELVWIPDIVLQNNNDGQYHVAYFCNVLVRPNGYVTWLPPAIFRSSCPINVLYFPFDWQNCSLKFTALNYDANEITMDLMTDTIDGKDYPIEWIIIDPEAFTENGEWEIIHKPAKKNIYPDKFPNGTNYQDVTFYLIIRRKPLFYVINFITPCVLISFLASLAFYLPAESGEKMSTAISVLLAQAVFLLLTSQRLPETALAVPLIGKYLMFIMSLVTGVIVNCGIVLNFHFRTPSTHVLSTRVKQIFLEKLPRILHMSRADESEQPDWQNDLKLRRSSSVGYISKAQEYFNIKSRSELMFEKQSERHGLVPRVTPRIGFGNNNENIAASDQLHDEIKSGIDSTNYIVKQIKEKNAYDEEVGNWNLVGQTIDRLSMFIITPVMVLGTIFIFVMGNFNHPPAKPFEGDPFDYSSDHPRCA
T1 sequence (P02714 18-506): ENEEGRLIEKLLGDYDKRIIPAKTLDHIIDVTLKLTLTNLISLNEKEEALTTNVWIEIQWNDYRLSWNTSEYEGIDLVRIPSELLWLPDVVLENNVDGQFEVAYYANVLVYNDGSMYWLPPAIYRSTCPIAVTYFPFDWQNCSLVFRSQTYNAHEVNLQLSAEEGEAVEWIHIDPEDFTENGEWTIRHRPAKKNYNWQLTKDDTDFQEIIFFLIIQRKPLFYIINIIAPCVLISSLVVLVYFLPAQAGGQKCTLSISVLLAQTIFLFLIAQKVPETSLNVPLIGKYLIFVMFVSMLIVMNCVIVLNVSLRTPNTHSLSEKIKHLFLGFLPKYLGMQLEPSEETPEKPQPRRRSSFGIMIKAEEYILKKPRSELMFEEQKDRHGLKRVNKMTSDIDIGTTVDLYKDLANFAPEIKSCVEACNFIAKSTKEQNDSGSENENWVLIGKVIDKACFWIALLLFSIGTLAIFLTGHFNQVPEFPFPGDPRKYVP
T1 sequence (P02712 25-493): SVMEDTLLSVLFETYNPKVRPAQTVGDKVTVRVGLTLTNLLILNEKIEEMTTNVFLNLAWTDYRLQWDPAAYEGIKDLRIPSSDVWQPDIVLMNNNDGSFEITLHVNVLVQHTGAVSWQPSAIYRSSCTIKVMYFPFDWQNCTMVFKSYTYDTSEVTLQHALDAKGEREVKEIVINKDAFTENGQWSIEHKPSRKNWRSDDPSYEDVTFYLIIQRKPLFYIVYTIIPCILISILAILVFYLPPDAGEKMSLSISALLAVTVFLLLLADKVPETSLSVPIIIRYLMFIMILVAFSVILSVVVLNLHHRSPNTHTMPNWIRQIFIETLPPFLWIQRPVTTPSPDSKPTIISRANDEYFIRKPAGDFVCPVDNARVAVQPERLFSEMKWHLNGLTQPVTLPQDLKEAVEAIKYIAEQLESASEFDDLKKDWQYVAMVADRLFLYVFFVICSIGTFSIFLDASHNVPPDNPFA
T1 sequence (P02710 25-461): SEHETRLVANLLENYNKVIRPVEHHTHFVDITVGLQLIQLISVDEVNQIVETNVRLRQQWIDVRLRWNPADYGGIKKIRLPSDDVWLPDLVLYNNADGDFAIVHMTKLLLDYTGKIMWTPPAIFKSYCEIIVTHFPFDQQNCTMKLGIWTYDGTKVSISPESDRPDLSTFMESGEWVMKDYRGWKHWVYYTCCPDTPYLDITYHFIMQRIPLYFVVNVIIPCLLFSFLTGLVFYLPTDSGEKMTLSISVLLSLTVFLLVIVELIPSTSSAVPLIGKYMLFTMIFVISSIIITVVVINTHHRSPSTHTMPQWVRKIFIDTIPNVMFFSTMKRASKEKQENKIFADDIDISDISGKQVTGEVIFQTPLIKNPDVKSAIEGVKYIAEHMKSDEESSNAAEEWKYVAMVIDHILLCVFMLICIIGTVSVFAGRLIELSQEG

`CNC(=O)Oc1ccc2c(c1)[C@]1(C)CCN(C)[C@@H]1N2C` [physostigmine]: the “decrease of [^3H]physostigmine photolabeling in the nAChR subunits” value in assay [1] is reported as 25–40%. The IC50 in assay [2] (IC50, inhibition of [^3H]PCP binding) is 1000 µM and 900 µM; in assay [4], more than 10000 µM; in assay [5], 5000 µM. Moreover, in assay [3], the “decrease of [^3H]physostigmine photolabeling in Na^+/K^+-ATPase α subunit” value is given as less than 5%.

With `COc1ccc2c3c1O[C@H]1C[C@@H](O)C=C[C@@]31CCN(C)C2` [galanthamine], the “change of efficiency of [^3H]physostigmine photolabeling at δTyr-439” value (“change of efficiency … at δTyr-439” for short) in assay [1] is less than 20%. The “reduction of [^3H]physostigmine photoincorporation into the nAChR subunits” value in assay [1] is on record as “to the same extent as 100 μM physostigmine”. For the same molecule, the inhibition at 300 µM is approximately 75% in assay [1] (read-out: inhibition of [^3H]physostigmine photolabeling of γTyr-105, γTyr-111 and γTyr-117); approximately 50% in assay [1] (read-out: inhibition of [^3H]physostigmine photolabeling of δTyr-212). Besides, the inhibition at 3000 µM in assay [2] (read-out: inhibition of [^3H]PCP binding) came to 20%; in assay [5] (read-out: inhibition of [^3H]tetracaine binding), 10%. Besides, in assay [4], the IC50 is 3000 µM and 2800 µM. Further, in assay [6], the “reduction of [^3H]galanthamine photolabeling of Na^+/K^+-ATPase α subunit” value is less than 5%. In addition, in assay [7], the “reduction of [^3H]galanthamine photolabeling of each nAChR subunit” value is ~ 25%.

As for [^3H]physostigmine, in assay [1], the “efficiency of photolabeling at δTyr-439” value was determined as 1 cpm/pmol; the “photolabeling, if it occurred, of αLys-125” value was “less than 0.2 cpm/pmol”; the “photolabeling, if it occurred, of αTyr-127” value was less than 0.05 cpm/pmol. The “photolabeling of δTyr-172” value in assay [1] (+Carb 1 mM) came out at 4.9 cpm/pmol. Also, the “photolabeling of δTyr-172” value in assay [1] (+αBgTx 8 μM) stood at 1.6 cpm/pmol. In addition, the “photolabeling of δTyr-172” value in assay [1] (Carb-independent) is listed as 4 cpm/pmol. Also, in assay [1] (setting [8]), the “photoincorporation into αY190 (Site IV, core aromatics)” value came to 10 cpm/pmol; the “photoincorporation into αY198 (Site IV, core aromatics)” value amounted to 20 cpm/pmol; the “photoincorporation into γY111 (Site I)” value is 9 cpm/pmol; the “photoincorporation into γY117 (Site I)” value was determined as 2 cpm/pmol. For the same molecule, the “photolabeling of αCys-192” value in assay [1] (absence of other drugs) was determined as 10 cpm/pmol. For the same molecule, in assay [1] (data not shown), the “photolabeling of δTrp-57” value is listed as 0.8 cpm/pmol and the “photolabeling, if it occurred, of adjacent aromatic amino acids (δTrp-64, δTyr-65)” value is less than 0.2 cpm/pmol. The “photolabeling of δTyr-172” value in assay [1] (−Carb) was 3.4 cpm/pmol. In assay [1] (−αBgTx), the “photolabeling of δTyr-172” value is recorded as 5 cpm/pmol.

Take `C[N+](C)(C)CCOC(N)=O.[Cl-]` [Carb, carbamylcholine]: in assay [1], the “alteration of [^3H]physostigmine photoincorporation in nAChR β subunit” value was less than 5%, the “change of efficiency … at δTyr-439” value was less than 20%, the “effect on [^3H]physostigmine photolabeling of γTyr-105” value is recorded as “enhanced” and the “effect on efficiency of [^3H]physostigmine photolabeling of δTyr-212” value is reported as “doubled”. For the same molecule, in assay [1], the “increase of [^3H]physostigmine photolabeling of nAChR δ subunit” value was ~ 10%; the “inhibition of [^3H]physostigmine photolabeling of αTyr-93” value is more than 90%; the “inhibition of [^3H]physostigmine photolabeling of αTyr-190, αCys-192 and αTyr-198” value is more than 85%; the “inhibition of [^3H]physostigmine photolabeling of αV8-20 fragment” value is on record as more than 75%. Moreover, in assay [1], the “inhibition of [^3H]physostigmine photolabeling of γTyr-111 and γTyr-117” value is listed as 50–60%; the “reduction of [^3H]physostigmine photoincorporation into nAChR α subunit” value was 40%; the “reduction of [^3H]physostigmine photoincorporation into nAChR γ subunit” value was 10%. The “alteration of [^3H]physostigmine photoincorporation in Na^+/K^+-ATPase α subunit” value in assay [3] is given as less than 5%. In assay [7], the “inhibition of [^3H]galanthamine photolabeling in the α subunit” value is 80%; the “inhibition of [^3H]galanthamine photolabeling of αTyr-190 and αTyr-198” value is more than 95%; the “reduction of [^3H]galanthamine photolabeling in β subunit” value is listed as less than 5%; the “reduction of [^3H]galanthamine photolabeling in γ and δ subunits” value was ~ 25%.

For the molecule α-bungarotoxin [α-BgTx], in assay [1], the “alteration of [^3H]physostigmine photoincorporation in nAChR β subunit” value was less than 5%, the “change of efficiency … at δTyr-439” value was less than 20%, the “decrease of [^3H]physostigmine photolabeling of nAChR δ subunit” value is given as ~ 10% and the “effect on [^3H]physostigmine photolabeling of γTyr-105” value was “unchanged”. In assay [1], the “inhibition of [^3H]physostigmine photolabeling of αTyr-190, αCys-192 and αTyr-198” value was more than 85%; the “inhibition of [^3H]physostigmine photolabeling of αV8-20 fragment” value is given as more than 75%; the “inhibition of [^3H]physostigmine photolabeling of γTyr-111 and γTyr-117” value is recorded as 50–60%; the “reduction of [^3H]physostigmine photoincorporation into nAChR α subunit” value was 40%. Also, in assay [1], the “reduction of [^3H]physostigmine photoincorporation into nAChR γ subunit” value amounted to 20%, the “reduction of [^3H]physostigmine photolabeling of δTyr-172” value amounted to 70% and the “reduction of efficiency of [^3H]physostigmine photolabeling of δTyr-212” value is reported as ~ 25%. Moreover, the “alteration of [^3H]physostigmine photoincorporation in Na^+/K^+-ATPase α subunit” value in assay [3] is on record as less than 5%.
